Laboratory results as given in patent US7368578B2, “Five-membered heterocyclic compounds” (Takeda Pharmaceutical Company Limited, priority 2002, dated 2008).

Row | melting point [°C] | SMILES
1 | 108 to 109 | CCc1nc(/C=C/c2cn(-c3ccccc3)nc2OCc2ccc(OCc3nc(-c4ccco4)oc3C)c(OC)c2)cs1 [Example 152 (E form), 4-({4-[({4-[(E)-2-(2-ethyl-1,3-thiazol-4-yl)ethenyl]-1-phenyl-1H-pyrazol-3-yl}oxy)methyl]-2-methoxyphenoxy}methyl)-2-(2-furyl)-5-methyl-1,3-oxazole]
2 | 132 to 133 | CCc1nc(/C=C\c2cn(-c3ccccc3)nc2OCc2ccc(OCc3nc(-c4ccco4)oc3C)c(OC)c2)cs1 [Example 152 (Z form), 4-({4-[({4-[(Z)-2-(2-ethyl-1,3-thiazol-4-yl)ethenyl]-1-phenyl-1H-pyrazol-3-yl}oxy)methyl]-2-methoxyphenoxy}methyl)-2-(2-furyl)-5-methyl-1,3-oxazole]
3 | 149 to 150 | CCOc1cc(COc2nn(-c3ccccc3)cc2C=O)ccc1OCc1nc(-c2ccco2)oc1C [Example 154, 3-[(3-ethoxy-4-{[2-(2-furyl)-5-methyl-1,3-oxazol-4-yl]methoxy}benzyl)oxy]-1-phenyl-1H-pyrazole-4-carbaldehyde]
4 | 177 to 178 | COc1cc(COc2nn(-c3ccccc3)cc2/C=C/C(C)=O)ccc1OCc1nc(-c2ccco2)oc1C [Example 155, (3E)-4-{3-[(4-{[2-(2-furyl)-5-methyl-1,3-oxazol-4-yl]methoxy}-3-methoxybenzyl)oxy]-1-phenyl-1H-pyrazol-4-yl}-3-buten-2-one]
5 | 167 to 168 | CCCC(=O)/C=C/c1cn(-c2ccccc2)nc1OCc1ccc(OCc2nc(-c3ccco3)oc2C)c(OC)c1 [Example 157, (1E)-1-{3-[(4-{[2-(2-furyl)-5-methyl-1,3-oxazol-4-yl]methoxy}-3-methoxybenzyl)oxy]-1-phenyl-1H-pyrazol-4-yl}-1-hexen-3-one]
6 | 138 to 140 | COc1cc(COc2nn(-c3ccccc3)cc2/C=C/P(=O)(O)O)ccc1OCc1nc(-c2ccco2)oc1C [Example 158, (E)-2-{3-[(4-{[2-(2-furyl)-5-methyl-1,3-oxazol-4-yl]methoxy}-3-methoxybenzyl)oxy]-1-phenyl-1H-pyrazol-4-yl}ethenylphosphonic acid]
7 | 173 to 174 | COc1cc(COc2nn(-c3ccccc3)cc2/C=C/C(=O)N(C)OC)ccc1OCc1nc(-c2ccco2)oc1C [Example 162, (2E)-3-{3-[(4-{[2-(2-furyl)-5-methyl-1,3-oxazol-4-yl]methoxy}-3-methoxybenzyl)oxy]-1-phenyl-1H-pyrazol-4-yl}-N-methoxy-N-methyl-2-propenamide]
8 | 173 to 174 | COC(=O)c1cc(COc2nn(-c3ccccc3)cc2C=O)ccc1OCc1nc(-c2ccco2)oc1C [Example 163, methyl 5-{[(4-formyl-1-phenyl-1H-pyrazol-3-yl)oxy]methyl}-2-{[2-(2-furyl)-5-methyl-1,3-oxazol-4-yl]methoxy}benzoate]
9 | 122 to 123 | Cc1oc(-c2ccco2)nc1COc1ccc(COc2nn(-c3ccccc3)cc2C=O)cn1 [Example 164, 3-[(6-{[2-(2-furyl)-5-methyl-1,3-oxazol-4-yl]methoxy}pyridin-3-yl)methoxy]-1-phenyl-1H-pyrazole-4-carbaldehyde]
10 | 135 to 136 | CCOC(=O)/C=C/c1cn(C)nc1OCc1ccc(OCc2nc(-c3ccco3)oc2C)c(OC)c1 [Example 165, ethyl (2E)-3-{3-[(4-([2-(2-furyl)-5-methyl-1,3-oxazol-4-yl]methoxy}-3-methoxybenzyl)oxy]-1-methyl-1H-pyrazol-4-yl)-2-propenoate]
11 | 134 to 135 | COc1cc(COc2nn(C)cc2/C=C/c2cscn2)ccc1OCc1nc(-c2ccco2)oc1C [Example 167 (E form), 2-(2-furyl)-4-({2-methoxy-4-[({1-methyl-4-[(E)-2-(1,3-thiazol-4-yl)ethenyl]-1H-pyrazol-3-yl}oxy)methyl]phenoxy}methyl)-5-methyl-1,3-oxazole]
12 | 97 to 98 | COc1cc(COc2nn(C)cc2/C=C\c2cscn2)ccc1OCc1nc(-c2ccco2)oc1C [Example 167 (Z form), 2-(2-furyl)-4-({2-methoxy-4-[({1-methyl-4-[(Z)-2-(1,3-thiazol-4-yl)ethenyl]-1H-pyrazol-3-yl}oxy)methyl]phenoxy}methyl)-5-methyl-1,3-oxazole]
13 | 149 to 150 | CCOC(=O)/C=C/c1cn(CC)nc1OCc1ccc(OCc2nc(-c3ccco3)oc2C)c(OC)c1 [Example 168, ethyl (2E)-3-{1-ethyl-3-[(4-{[2-(2-furyl)-5-methyl-1,3-oxazol-4-yl]methoxy}-3-methoxybenzyl)oxy]-1H-pyrazol-4-yl}-2-propenoate]
14 | 117 to 118 | CCOC(=O)c1cn(C)nc1OCc1ccc(OCc2nc(-c3ccco3)oc2C)c(OC)c1 [Example 171, ethyl 3-[(4-{[2-(2-furyl)-5-methyl-1,3-oxazol-4-yl]methoxy}-3-methoxybenzyl)oxy]-1-methyl-1H-pyrazole-4-carboxylate]
15 | 114 to 115 | CCOC(=O)c1cn(CC)nc1OCc1ccc(OCc2nc(-c3ccco3)oc2C)c(OC)c1 [Example 172, ethyl 1-ethyl-3-[(4-{[2-(2-furyl)-5-methyl-1,3-oxazol-4-yl]methoxy}-3-methoxybenzyl)oxy]-1H-pyrazole-4-carboxylate]
16 | 120 to 122 | COc1cc(COc2nn(CCO)cc2CO)ccc1OCc1nc(-c2ccco2)oc1C [Example 176, 2-[3-[(4-{[2-(2-furyl)-5-methyl-1,3-oxazol-4-yl]methoxy}-3-methoxybenzyl)oxy]-4-(hydroxymethyl)-1H-pyrazol-1-yl]ethanol]
17 | 155 to 156 | COc1cc(COc2nn(C)cc2C=O)ccc1OCc1nc(-c2ccco2)oc1C [Example 177, 3-[(4-{[2-(2-furyl)-5-methyl-1,3-oxazol-4-yl]methoxy}-3-methoxybenzyl)oxy]-1-methyl-1H-pyrazole-4-carbaldehyde]
18 | 103 to 104 | CCn1cc(C=O)c(OCc2ccc(OCc3nc(-c4ccco4)oc3C)c(OC)c2)n1 [Example 178, 1-ethyl-3-[(4-{[2-(2-furyl)-5-methyl-1,3-oxazol-4-yl]methoxy}-3-methoxybenzyl)oxy]-1H-pyrazole-4-carbaldehyde]
19 | 149 to 150 | COc1cc(COc2nn(CCO)cc2C=O)ccc1OCc1nc(-c2ccco2)oc1C [Example 179, 3-[(4-{[2-(2-furyl)-5-methyl-1,3-oxazol-4-yl]methoxy}-3-methoxybenzyl)oxy]-1-(2-hydroxyethyl)-1H-pyrazole-4-carbaldehyde]
20 | 144 to 145 | COc1cc(COc2nn(-c3ccccc3)cc2/C=C/c2cncn2C)ccc1OCc1nc(-c2ccco2)oc1C [Example 181, 2-(2-furyl)-4-({2-methoxy-4-[({4-[(E)-2-(1-methyl-1H-imidazol-5-yl)ethenyl]-1-phenyl-1H-pyrazol-3-yl}oxy)methyl]phenoxy}methyl)-5-methyl-1,3-oxazole]
21 | 130 to 132 | CCn1cncc1/C=C/c1cn(-c2ccccc2)nc1OCc1ccc(OCc2nc(-c3ccco3)oc2C)c(OC)c1 [Example 182, 4-({4-[({4-[(E)-2-(1-ethyl-1H-imidazol-5-yl)ethenyl]-1-phenyl-1H-pyrazol-3-yl}oxy)methyl]-2-methoxyphenoxy}methyl)-2-(2-furyl)-5-methyl-1,3-oxazole]
22 | 129 to 131 | COc1cc(COc2nn(-c3ccccc3)cc2/C=C/C(N)=S)ccc1OCc1nc(-c2ccco2)oc1C [Example 184, (2E)-3-{3-[(4-{[2-(2-furyl)-5-methyl-1,3-oxazol-4-yl]methoxy}-3-methoxybenzyl)oxy]-1-phenyl-1H-pyrazol-4-yl}-2-propenethioamide]
23 | 130 to 131 | COc1cc(COc2nn(-c3ccccc3)cc2/C=C/c2nc(C)cs2)ccc1OCc1nc(-c2ccco2)oc1C [Example 185, 2-(2-furyl)-4-({2-methoxy-4-[({4-[(E)-2-(4-methyl-1,3-thiazol-2-yl)ethenyl]-1-phenyl-1H-pyrazol-3-yl}oxy)methyl]phenoxy}methyl)-5-methyl-1,3-oxazole]
24 | 156 to 157 | CCOC(=O)c1csc(/C=C/c2cn(-c3ccccc3)nc2OCc2ccc(OCc3nc(-c4ccco4)oc3C)c(OC)c2)n1 [Example 186, ethyl 2-((E)-2-{3-[(4-{[2-(2-furyl)-5-methyl-1,3-oxazol-4-yl]methoxy}-3-methoxybenzyl)oxy]-1-phenyl-1H-pyrazol-4-yl}ethenyl)-1,3-thiazole-4-carboxylate]
25 | 170 to 172 | COc1cc(COc2nn(-c3ccccc3)cc2/C=C/c2nc(C(=O)O)cs2)ccc1OCc1nc(-c2ccco2)oc1C [Example 187, 2-((E)-2-{3-[(4-{[2-(2-furyl)-5-methyl-1,3-oxazol-4-yl]methoxy}-3-methoxybenzyl)oxy]-1-phenyl-1H-pyrazol-4-yl}ethenyl)-1,3-thiazole-4-carboxylic acid]
26 | 165 to 166 | COc1cc(COc2nn(-c3ccccc3)cc2/C=C/c2nnc(C)[nH]2)ccc1OCc1nc(-c2ccco2)oc1C [Example 188, 3-((E)-2-{3-[(4-{[2-(2-furyl)-5-methyl-1,3-oxazol-4-yl]methoxy}-3-methoxybenzyl)oxy]-1-phenyl-1H-pyrazol-4-yl}ethenyl)-5-methyl-4H-1,2,4-triazole]
27 | 221 to 222 | COc1cc(COc2nn(-c3ccccc3)cc2/C=C/C(=O)NNC(C)=O)ccc1OCc1nc(-c2ccco2)oc1C [Example 189, (2E)-N′-acetyl-3-{3-[(4-{[2-(2-furyl)-5-methyl-1,3-oxazol-4-yl]methoxy}-3-methoxybenzyl)oxy]-1-phenyl-1H-pyrazol-4-yl}-2-propenohydrazide]
28 | 93 to 94 | CCc1nc(/C=C\c2cn(-c3ccccc3)nc2OCc2ccc(OCc3csc(N4CCCCC4)n3)c(OC)c2)cs1 [Example 193 (Z form), 1-[4-({4-[({4-[(Z)-2-(2-ethyl-1,3-thiazol-4-yl)ethenyl]-1-phenyl-1H-pyrazol-3-yl}oxy)methyl]-2-methoxyphenoxy}methyl)-1,3-thiazol-2-yl]piperidine]
29 | 123 to 124 | COc1cc(COc2nn(-c3ccccc3)cc2C=O)ccc1OCc1csc(N2CCCCC2)n1 [Example 196, 3-({3-methoxy-4-[(2-piperidin-1-yl-1,3-thiazol-4-yl)methoxy]benzyl}oxy)-1-phenyl-1H-pyrazole-4-carbaldehyde]
